pIC50: −log10 of the molar value.
biological target: T1, Inhibitor of nuclear factor kappa-B kinase subunit beta (Homo sapiens, UniProt O14920); experiment: Inhibition of human recombinant C-terminal FLAG-epitope-tagged IKK2 expressed in baculovirus using biotinylated IkappaBalpha peptide as substrate assessed as decrease in [gamma-33P]-ATP incorporation in substrate after 30 mins by scintillation counting method
T1 sequence (O14920 whole entry): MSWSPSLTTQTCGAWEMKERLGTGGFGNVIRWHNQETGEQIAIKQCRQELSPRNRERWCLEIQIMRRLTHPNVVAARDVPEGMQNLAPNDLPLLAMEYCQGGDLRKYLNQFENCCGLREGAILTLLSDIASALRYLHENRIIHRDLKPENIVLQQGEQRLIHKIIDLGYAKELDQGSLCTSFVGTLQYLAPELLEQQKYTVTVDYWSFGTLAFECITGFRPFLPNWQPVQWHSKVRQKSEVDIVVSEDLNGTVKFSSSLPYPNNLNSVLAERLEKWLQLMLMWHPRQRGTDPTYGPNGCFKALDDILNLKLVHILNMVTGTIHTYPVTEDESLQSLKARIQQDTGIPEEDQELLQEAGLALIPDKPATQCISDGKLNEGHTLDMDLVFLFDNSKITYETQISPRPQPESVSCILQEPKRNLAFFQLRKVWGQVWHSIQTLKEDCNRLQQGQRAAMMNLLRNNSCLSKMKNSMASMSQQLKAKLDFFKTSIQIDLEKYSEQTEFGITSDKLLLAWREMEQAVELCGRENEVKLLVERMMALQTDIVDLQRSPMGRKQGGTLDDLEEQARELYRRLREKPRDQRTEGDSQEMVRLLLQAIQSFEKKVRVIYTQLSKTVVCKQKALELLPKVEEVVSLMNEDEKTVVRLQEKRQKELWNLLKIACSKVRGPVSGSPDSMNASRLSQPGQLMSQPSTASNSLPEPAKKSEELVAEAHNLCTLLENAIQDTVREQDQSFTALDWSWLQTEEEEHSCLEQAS

SMILES | pIC50
CCC(=O)Nc1ccc2c(c1)-c1c(c(C(N)=O)nn1-c1ccc(S(N)(=O)=O)cc1)CC2 | 5.00 to 6.00
CC(C)CNc1ccc2c(c1)-c1c(c(C(N)=O)nn1-c1ccc(S(N)(=O)=O)cc1)CC2 | 4.00 to 5.00
NC(=O)c1nn(-c2ccc(S(N)(=O)=O)cc2)c2c1CCc1ccc(NC(=O)C3CC3)cc1-2 | 5.00 to 6.00
NC(=O)c1nn(-c2ccc(S(N)(=O)=O)cc2)c2c1CCc1ccc(NS(=O)(=O)c3ccc(F)cc3F)cc1-2 | 4.00 to 5.00
CS(=O)(=O)Nc1ccc2c(c1)-c1c(c(C(N)=O)nn1-c1ccc(S(N)(=O)=O)cc1)CC2 | ≥ 6.00
NC(=O)c1nn(-c2ccc(S(N)(=O)=O)cc2)c2c1CCc1ccc(NC(=O)C3CCC3)cc1-2 | 5.00 to 6.00
NC(=O)c1nn(-c2ccc(S(N)(=O)=O)cc2)c2c1CCc1ccc(NS(=O)(=O)c3ccc(F)cc3)cc1-2 | 5.00 to 6.00
NC(=O)c1nn(-c2ccc(S(N)(=O)=O)cc2)c2c1CCc1ccc(NC(=O)Cc3ccccc3)cc1-2 | 5.00 to 6.00
Cc1ccc(CNc2ccc3c(c2)-c2c(c(C(N)=O)nn2-c2ccc(S(N)(=O)=O)cc2)CC3)cc1 | 4.00 to 5.00
NC(=O)c1nn(-c2ccc(S(N)(=O)=O)cc2)c2c1CCc1ccc(NS(=O)(=O)c3cc(C(F)(F)F)cc(C(F)(F)F)c3)cc1-2 | 5.00 to 6.00
NC(=O)c1nn(-c2ccc(S(N)(=O)=O)cc2)c2c1CCc1ccc(NS(=O)(=O)c3ccc(-c4ccccn4)s3)cc1-2 | 4.00 to 5.00
COc1ccc(CNc2ccc3c(c2)-c2c(c(C(N)=O)nn2-c2ccc(S(N)(=O)=O)cc2)CC3)cc1 | 5.00 to 6.00
CC(=O)Nc1ccc2c(c1)-c1c(c(C(N)=O)nn1-c1ccc(S(N)(=O)=O)cc1)CC2 | 4.00 to 5.00
Cn1cnc(S(=O)(=O)Nc2ccc3c(c2)-c2c(c(C(N)=O)nn2-c2ccc(S(N)(=O)=O)cc2)CC3)c1 | 4.00 to 5.00
NC(=O)c1nn(-c2ccc(S(N)(=O)=O)cc2)c2c1CCc1ccc(N)cc1-2 | ≥ 6.00
COc1ccc(S(=O)(=O)Nc2ccc3c(c2)-c2c(c(C(N)=O)nn2-c2ccc(S(N)(=O)=O)cc2)CC3)cc1OC | 4.00 to 5.00
NC(=O)c1nn(-c2ccc(S(N)(=O)=O)cc2)c2c1CCc1ccc(NS(=O)(=O)c3ccccc3)cc1-2 | 5.00 to 6.00
CC(C)S(=O)(=O)Nc1ccc2c(c1)-c1c(c(C(N)=O)nn1-c1ccc(S(N)(=O)=O)cc1)CC2 | 5.00 to 6.00
CC(C)C(=O)Nc1ccc2c(c1)-c1c(c(C(N)=O)nn1-c1ccc(S(N)(=O)=O)cc1)CC2 | 5.00 to 6.00
CCCS(=O)(=O)Nc1ccc2c(c1)-c1c(c(C(N)=O)nn1-c1ccc(S(N)(=O)=O)cc1)CC2 | 5.00 to 6.00
NC(=O)c1nn(-c2ccc(S(N)(=O)=O)cc2)c2c1CCc1ccc(NS(=O)(=O)c3cccc4ccccc34)cc1-2 | 4.00 to 5.00
COCC(=O)Nc1ccc2c(c1)-c1c(c(C(N)=O)nn1-c1ccc(S(N)(=O)=O)cc1)CC2 | 5.00 to 6.00
NC(=O)c1nn(-c2ccc(S(N)(=O)=O)cc2)c2c1CCc1ccc(NS(=O)(=O)c3ccc(Cl)c(Cl)c3)cc1-2 | 5.00 to 6.00
COc1ccc(C(=O)Nc2ccc3c(c2)-c2c(c(C(N)=O)nn2-c2ccc(S(N)(=O)=O)cc2)CC3)cc1 | ≥ 6.00

SMILES | pIC50
NC(=O)c1nn(-c2ccc(S(N)(=O)=O)cc2)c2c1CCc1ccc(NS(=O)(=O)c3cc(Cl)ccc3Cl)cc1-2 | 5.00 to 6.00
NC(=O)c1nn(-c2ccc(S(N)(=O)=O)cc2)c2c1CCc1ccc(NC(=O)c3ccco3)cc1-2 | 4.00 to 5.00
NC(=O)c1nn(-c2ccc(S(N)(=O)=O)cc2)c2c1CCc1ccc(NC(=O)c3ccccc3)cc1-2 | 5.00 to 6.00
NC(=O)c1nn(-c2ccc(S(N)(=O)=O)cc2)c2c1CCc1ccc(NC(=O)c3ccc(C(F)(F)F)cc3)cc1-2 | 5.00 to 6.00
CCNC(=O)Nc1ccc2c(c1)-c1c(c(C(N)=O)nn1-c1ccc(S(N)(=O)=O)cc1)CC2 | 5.00 to 6.00
C[C@H](N)C(=O)Nc1ccc2c(c1)-c1c(c(C(N)=O)nn1-c1ccc(S(N)(=O)=O)cc1)CC2 | 5.00 to 6.00
NC(=O)c1nn(-c2ccc(S(N)(=O)=O)cc2)c2c1CCc1ccc(NC(=O)C34CC5CC(CC(C5)C3)C4)cc1-2 | 5.00 to 6.00
NC(=O)c1nn(-c2ccc(S(N)(=O)=O)cc2)c2c1CCc1ccc(NS(=O)(=O)c3ccc(Br)cc3F)cc1-2 | 5.00 to 6.00
NC(=O)c1nn(-c2ccc(S(N)(=O)=O)cc2)c2c1CCc1ccc(NS(=O)(=O)c3ccc(F)c(F)c3)cc1-2 | 4.00 to 5.00
NC(=O)c1nn(-c2ccc(S(N)(=O)=O)cc2)c2c1CCc1ccc(NS(=O)(=O)CC(F)(F)F)cc1-2 | 5.00 to 6.00
CN(C)c1cccc2c(S(=O)(=O)Nc3ccc4c(c3)-c3c(c(C(N)=O)nn3-c3ccc(S(N)(=O)=O)cc3)CC4)cccc12 | 5.00 to 6.00
NC(=O)c1nn(-c2ccc(S(N)(=O)=O)cc2)c2c1CCc1ccc(NC(=O)C3CCCC3)cc1-2 | 5.00 to 6.00
C[C@@H](N)C(=O)Nc1ccc2c(c1)-c1c(c(C(N)=O)nn1-c1ccc(S(N)(=O)=O)cc1)CC2 | 5.00 to 6.00
CCS(=O)(=O)Nc1ccc2c(c1)-c1c(c(C(N)=O)nn1-c1ccc(S(N)(=O)=O)cc1)CC2 | ≥ 6.00
Cc1ccc(S(=O)(=O)Nc2ccc3c(c2)-c2c(c(C(N)=O)nn2-c2ccc(S(N)(=O)=O)cc2)CC3)cc1 | 4.00 to 5.00
NC(=O)c1nn(-c2ccc(S(N)(=O)=O)cc2)c2c1CCc1ccc(NC(=O)c3cccs3)cc1-2 | 4.00 to 5.00
CCCC(=O)Nc1ccc2c(c1)-c1c(c(C(N)=O)nn1-c1ccc(S(N)(=O)=O)cc1)CC2 | 5.00 to 6.00
NC(=O)c1nn(-c2ccc(S(N)(=O)=O)cc2)c2c1CCc1ccc(NS(=O)(=O)C(F)(F)F)cc1-2 | 4.00 to 5.00
NC(=O)c1nn(-c2ccc(S(N)(=O)=O)cc2)c2c1CCc1ccc(NS(=O)(=O)c3cccc4cnccc34)cc1-2 | 5.00 to 6.00
NC(=O)c1nn(-c2ccc(S(N)(=O)=O)cc2)c2c1CCc1ccc(NC(=O)C3CCCCC3)cc1-2 | 5.00 to 6.00
NC(=O)c1nn(-c2ccc(S(N)(=O)=O)cc2)c2c1CCc1ccc(NS(=O)(=O)c3ccc4cccnc4c3)cc1-2 | < 4.00
NC(=O)c1nn(-c2ccc(S(N)(=O)=O)cc2)c2c1CCc1ccc(NS(=O)(=O)c3cc(Cl)c(Cl)cc3Cl)cc1-2 | 5.00 to 6.00
COc1ccc(S(=O)(=O)Nc2ccc3c(c2)-c2c(c(C(N)=O)nn2-c2ccc(S(N)(=O)=O)cc2)CC3)cc1 | 4.00 to 5.00
NC(=O)c1nn(-c2ccc(S(N)(=O)=O)cc2)c2c1CCc1ccc(NC(=O)c3ccncc3)cc1-2 | ≥ 6.00

SMILES | pIC50
NC(=O)c1nn(-c2ccc(S(N)(=O)=O)cc2)c2c1CCc1ccc(NS(=O)(=O)c3cccc4nonc34)cc1-2 | 5.00 to 6.00
NC(=O)c1nn(-c2ccc(S(N)(=O)=O)cc2)c2c1CCc1ccc([N+](=O)[O-])cc1-2 | < 4.00
NC(=O)c1nn(-c2ccc(S(N)(=O)=O)cc2)c2c1CCc1ccc(NS(=O)(=O)c3ccc(-c4ccccc4)cc3)cc1-2 | 5.00 to 6.00
NC(=O)c1nn(-c2ccc(S(N)(=O)=O)cc2)c2c1CCc1ccc(NS(=O)(=O)Cc3ccccc3)cc1-2 | 5.00 to 6.00
NC(=O)c1nn(-c2ccc(S(N)(=O)=O)cc2)c2c1CCc1ccc(NS(=O)(=O)c3ccc(Cl)cc3)cc1-2 | 5.00 to 6.00
COc1ccc(C(=O)Nc2ccc3c(c2)-c2c(c(C(N)=O)nn2-c2ccc(S(N)(=O)=O)cc2)CC3)cc1OC | 5.00 to 6.00
CCCCC(=O)Nc1ccc2c(c1)-c1c(c(C(N)=O)nn1-c1ccc(S(N)(=O)=O)cc1)CC2 | 5.00 to 6.00
CCCCS(=O)(=O)Nc1ccc2c(c1)-c1c(c(C(N)=O)nn1-c1ccc(S(N)(=O)=O)cc1)CC2 | 5.00 to 6.00
NC(=O)c1nn(-c2ccc(S(N)(=O)=O)cc2)c2c1CCc1ccc(NS(=O)(=O)c3ccc(Br)cc3)cc1-2 | 5.00 to 6.00
NC(=O)c1nn(-c2ccc(S(N)(=O)=O)cc2)c2c1CCc1ccc(NC(=O)c3ccc(Cl)cc3)cc1-2 | ≥ 6.00
Cc1nc(S(=O)(=O)Nc2ccc3c(c2)-c2c(c(C(N)=O)nn2-c2ccc(S(N)(=O)=O)cc2)CC3)cn1C | 4.00 to 5.00
NC(=O)c1nn(-c2ccc(S(N)(=O)=O)cc2)c2c1CCc1ccc(NS(=O)(=O)c3cccc(C(F)(F)F)c3)cc1-2 | 4.00 to 5.00
NC(=O)c1nn(-c2ccc(S(N)(=O)=O)cc2)c2c1CCc1ccc(NC(=O)c3ccc(F)cc3)cc1-2 | ≥ 6.00
NC(=O)c1nn(-c2ccc(S(N)(=O)=O)cc2)c2c1CCc1ccc(NCc3ccccc3)cc1-2 | 5.00 to 6.00
NC(=O)c1nn(-c2ccc(S(N)(=O)=O)cc2)c2c1CCc1ccc(NC(=O)Nc3ccccc3)cc1-2 | 5.00 to 6.00
NC(=O)c1nn(-c2ccc(S(N)(=O)=O)cc2)c2c1CCc1ccc(NC(=O)c3cccc(C(F)(F)F)c3)cc1-2 | 5.00 to 6.00
Cc1cccc(C(=O)Nc2ccc3c(c2)-c2c(c(C(N)=O)nn2-c2ccc(S(N)(=O)=O)cc2)CC3)c1 | ≥ 6.00
CC(=O)Nc1nc(C)c(S(=O)(=O)Nc2ccc3c(c2)-c2c(c(C(N)=O)nn2-c2ccc(S(N)(=O)=O)cc2)CC3)s1 | 5.00 to 6.00
CN(C)S(=O)(=O)c1ccc(-n2nc(C(N)=O)c3c2-c2cc(N)ccc2CC3)cc1 | 5.00 to 6.00
NC(=O)c1nn(-c2ccc(S(N)(=O)=O)cc2)c2c1CCc1ccc(NS(=O)(=O)c3ccc(Cl)cc3Cl)cc1-2 | 5.00 to 6.00
C=CCN(CC=C)S(=O)(=O)c1ccc(-n2nc(C(N)=O)c3c2-c2cc(N)ccc2CC3)cc1 | 5.00 to 6.00
NC(=O)c1nn(-c2ccc(S(N)(=O)=O)cc2)c2c1CCc1ccc(NCc3ccc(Cl)cc3)cc1-2 | 4.00 to 5.00
